Data published in patent publication US11505569B2, “GalNAc phosphoramidites, nucleic acid conjugates thereof and their use” (Hoffmann-La Roche, Inc., priority 2014, dated 2022).
Strand notation (5' to 3'): a small letter for the sugar, then the base; units joined by * are phosphorothioate-linked, units joined directly phosphodiester-linked; [ ] holds rarer units or linkages, { } end groups; capitals alone tell only the bases. l = locked nucleic acid (LNA); [5mC] = 5-methylcytosine; d = 2'-deoxy (DNA)

System: ApoB mRNA
Assay: Knock down of ApoB mRNA in vivo (qPCR on liver and kidney RNA)
Conditions: C57BL6/J mice, single sc dose 0.25 mg/kg GalNAc2 or equimolar amounts; for down regulation of ApoB mRNA in kidney: sacrificed at day 10, kidney, qPCR (FIG. 7B); for ApoB mRNA knock down in the liver: sacrificed at day 10, liver, qPCR (FIG. 7A)
Description: To compare the effect of different GalNAc constructs C57BL6/J mice were injected sc with a single dose saline or 0.25 mg/kg GalNAc2 cluster conjugated LNA-antisense oligonucleotide (GalNAc2) or equimolar amounts of LNA antisense oligonucleotides conjugated to the GalNAc constructs of the invention (FIGS. 6 E, I, M and N) or unconjugated LNA antisense oligonucleotide (see Example 2, table 1 for details) and sacrificed at days 10 where liver and kidney were isolated.
At sacrifice RNA was isolated from liver and kidney and subjected to qPCR with ApoB specific primers and probe to analyze for ApoB mRNA knockdown as described in the protocol below.
The animals were anaesthetised with 70% CO2-30% O2 and sacrificed by cervical dislocation. One half of the large liver lobe and one kidney were minced and submerged in RNAlater.
Total RNA was extracted from a maximum of 30 mg of tissue/sample, homogenized by bead-milling in the presence of lysis buffer (MagnaPure LC RNA Isolation Tissue buffer (#03604721001; Roche)) according to the manufacturer's instructions. The RNA was purified on a MagnaPure 96 System; Roche using Cellular RNA Large Volume Kit (#05467535001; Roche) using the manufacturer's standard protocol. First strand synthesis was performed using Reverse Transcriptase reagents from Ambion according to the manufacturer's instructions.
For each sample 0.5 μg total RNA was adjusted to (10.8 μl) with RNase free H2O and mixed with 2 μl random decamers (50 μM) and 4 μl dNTP mix (2.5 mM each dNTP) and heated to 70° C. for 3 min after which the samples were rapidly cooled on ice. 2 μl 10× Buffer RT, 1 μl MMLV Reverse Transcriptase (100 U/μl) and 0.25 μl RNase inhibitor (10 U/μl) were added to each sample, followed by incubation at 42° C. for 60 min, heat inactivation of the enzyme at 95° C. for 10 min and then the sample was cooled to 4° C. cDNA samples were diluted 1:5 and subjected to RT-QPCR using Taqman Fast Universal PCR Master Mix 2× (Applied Biosystems Cat #4364103) and Taqman gene expression assay (mApoB, Mn01545150_ml and mGAPDH #4352339E) following the manufacturers protocol and processed in an Applied Biosystems RT-qPCR instrument (7500/7900 or ViiA7) in fast mode.

Substance | down regulation of ApoB mRNA in kidney | ApoB mRNA knock down in the liver
Control: unconjugated oligonucleotide of SEQ ID NO: 1 (5′G^mCattggtatT^mCA-3′), without any GalNAc moieties attached (DNA GCATTGGTATTCA; LNA modifications, chemistry not fully specified) [reference compound] | higher | 
E: trivalent GalNAc construct, chain length 10, conjugated to oligonucleotide SEQ ID NO: 2 (5′ caG^mCattggtatT^mCA-3′) (antisense CAGCATTGGTATTCA; sugars from the 5' end d2 l2 d8 l3, [5mC] at 4, 14, backbone not given here; trivalent GalNAc conjugate, first linkages phosphodiester) | higher for the unconjugated LNA oligonucleotide (control) than for the GalNAc conjugated compounds | comparable effect on the target mRNA (ApoB mRNA) to the GalNAc2 cluster
GalNAc2: SEQ ID NO: 1 attached to the GalNAc2 cluster by a phospothioate group; SEQ ID NO: 20 in WO 2014/076196 (antisense lG*l[5mC]*dA*dT*dT*dG*dG*dT*dA*dT*lT*l[5mC]*lA; GalNAc2 cluster attached via phosphorothioate, end not given here) [reference compound] | higher for the unconjugated LNA oligonucleotide (control) than for the GalNAc conjugated compounds | 
I: trivalent GalNAc construct, chain length 16, conjugated to oligonucleotide SEQ ID NO: 2 (antisense CAGCATTGGTATTCA; sugars from the 5' end d2 l2 d8 l3, [5mC] at 4, 14, backbone not given here; trivalent GalNAc conjugate, first linkages phosphodiester) | higher for the unconjugated LNA oligonucleotide (control) than for the GalNAc conjugated compounds | comparable effect on the target mRNA (ApoB mRNA) to the GalNAc2 cluster
M: trivalent GalNAc construct with spacer, chain length 16, conjugated to oligonucleotide SEQ ID NO: 2 (antisense CAGCATTGGTATTCA; sugars from the 5' end d2 l2 d8 l3, [5mC] at 4, 14, backbone not given here; further chemistry not fully specified) | higher for the unconjugated LNA oligonucleotide (control) than for the GalNAc conjugated compounds | comparable effect on the target mRNA (ApoB mRNA) to the GalNAc2 cluster
N: trivalent GalNAc construct with spacer, chain length 30, conjugated to oligonucleotide SEQ ID NO: 2 (antisense CAGCATTGGTATTCA; sugars from the 5' end d2 l2 d8 l3, [5mC] at 4, 14, backbone not given here; further chemistry not fully specified) | higher for the unconjugated LNA oligonucleotide (control) than for the GalNAc conjugated compounds | comparable effect on the target mRNA (ApoB mRNA) to the GalNAc2 cluster
